Publication PMC8041433 (Environmental Health Perspectives, 2021)
Values joined by “and” are separate entries in the source; they are usually repeats but may differ in a detail not shown here. Identical values can stand only once. Like-named read-outs stand apart in the source and are kept apart here.

Tests used:
recombinant human AChE [1] = molecular target: T1, recombinant human AChE (Homo sapiens, UniProt P22303); experiment: biochemical; type: biochemical; conditions: for AC50: AC50 (uM)
recombinant human AChE [2] = molecular target: T1, recombinant human AChE; experiment: biochemical
recombinant human AChE [3] = molecular target: T1, recombinant human AChE
recombinant human AChE [4] = molecular target: T1, recombinant human AChE; experiment: biochemical; remark: listed apart in the source
[5] = molecular target: AChE in neural stem cell spheroids (Homo sapiens, UniProt P22303); experiment: cell-based; conditions: potency (IC50)
AChE in neural stem cell spheroids, sequence (P22303 32-614): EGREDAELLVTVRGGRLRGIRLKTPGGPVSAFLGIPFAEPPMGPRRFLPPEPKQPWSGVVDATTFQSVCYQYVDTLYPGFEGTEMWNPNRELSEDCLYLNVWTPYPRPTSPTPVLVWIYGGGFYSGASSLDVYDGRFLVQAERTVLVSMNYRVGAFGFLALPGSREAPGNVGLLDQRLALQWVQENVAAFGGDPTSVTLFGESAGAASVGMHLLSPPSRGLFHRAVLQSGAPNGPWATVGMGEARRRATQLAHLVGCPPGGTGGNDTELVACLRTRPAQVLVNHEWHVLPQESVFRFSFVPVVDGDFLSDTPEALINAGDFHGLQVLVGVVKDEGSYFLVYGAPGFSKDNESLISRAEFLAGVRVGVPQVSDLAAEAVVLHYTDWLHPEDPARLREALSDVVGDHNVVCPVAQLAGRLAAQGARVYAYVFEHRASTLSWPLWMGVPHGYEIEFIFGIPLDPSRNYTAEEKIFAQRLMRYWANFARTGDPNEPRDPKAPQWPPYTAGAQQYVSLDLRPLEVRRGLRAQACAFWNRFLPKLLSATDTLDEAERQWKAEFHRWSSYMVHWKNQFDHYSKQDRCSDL

[6] = molecular target: AChE in neural stem cells (Homo sapiens, UniProt P22303); experiment: cell-based
AChE in neural stem cells, sequence (P22303 32-614): as above

recombinant human AChE [7] = molecular target: T1, recombinant human AChE; experiment: biochemical; remark: listed apart in the source
[8] = molecular target: AChE in SH-SY5Y spheroids (Homo sapiens, UniProt P22303); experiment: cell-based; conditions: potency (IC50)
AChE in SH-SY5Y spheroids, sequence (P22303 32-614): as above

AChE in SH-SY5Y cells = AChE in SH-SY5Y cells (Homo sapiens, UniProt P22303); experiment: cell-based
AChE in SH-SY5Y cells, sequence (P22303 32-614): as above

[9] = potency (IC50), Enzyme with microsomes
[10] = Neural stem cell spheroid (24 h)
[11] = Neural stem cell spheroid (48 h)
[12] = potency (IC50), SH-SY5Y cells monolayer
Throughout, for IR or R: key: Reversible (R); Irreversible (IR); ND, not detected in enzyme-based AChE inhibition assay from current study.

T1 sequence (P22303 32-614): as above

| Structure (SMILES) | IR or R (recombinant human AChE [1]) | reversibility of AChE inhibition (result in words) (recombinant human AChE [1]) | AC50 (recombinant human AChE [1]) | IC50 (recombinant human AChE [2]) [µM] | CC-v2 (curve classes) (recombinant human AChE [3]) | Efficacy (recombinant human AChE [3]) | IC50 (recombinant human AChE [4]; [9]) [µM] | IC50 [5, 10] [µM] | IC50 [5, 11] [µM] | IC50 [6] [µM] | CC-v2 (curve classes) (recombinant human AChE [7]) | Efficacy (recombinant human AChE [7]) | IC50 (recombinant human AChE [7]; potency (IC50), Enzyme) [µM] | IC50 ([8]; SH-SY5Y spheroids (24 h)) [µM] | IC50 ([8]; SH-SY5Y spheroids (48 h)) [µM] | CC-v2 (curve classes) (AChE in SH-SY5Y cells) | IC50 (AChE in SH-SY5Y cells; IC50 (uM)) | IC50 (AChE in SH-SY5Y cells; [12]) [µM] | IC50 (recombinant human AChE [4]; IC50 (uM)) | IC50 (recombinant human AChE [7]; read-out: IC50) [µM] |
| --- | --- | --- | --- | --- | --- | --- | --- | --- | --- | --- | --- | --- | --- | --- | --- | --- | --- | --- | --- | --- |
| CCN(CC)CCOc1ccc2c(c1)C(=O)c1cc(OCCN(CC)CC)ccc1-2 [Tilorone, reference compound] | R | reversible | 6.85 µM (2×) and 6.11 µM (2×) and 4.85 µM and 7.69 µM and 9.68 µM | 5.52 ± 1.16 | -1.1 | -84.739 | 5.46 | 19.6 | 25.7 | 5.88 | -1.1 | -92.014 | 4.18 | 1.34 | 1.42 | -1.1 | 0.977 µM and 1.1 µM and 0.776 µM | 1.77 | – | – |
| CCCCSP(=O)(SCCCC)SCCCC [Tribufos] | – | – | 88.5 µM | 25.1 ± 2.88 | -1.1 | – | 3.66 | 31.4 | 14 | 39.8 | -2.2 and 4 | – | 35.3 | 12.2 | 12 | -2.2 and -1.2 | 28.3 µM and 31 µM and 17.8 µM and 27.6 µM and 15.9 µM and 34.8 µM | 15.3 | 5.02 µM and 5.51 µM | 35.6 |
